Data taken from patent US20240409556A1, “BENZOPIPERAZINE AND RELATED ANALOGS FOR INHIBITING YAP/TAZ-TEAD” (Springworks Therapeutics, Inc., priority 2023, published 2024).
pEC50, pIC50: −log10 of the molar value.

Key:
Format in all cases: cell-based
[1] = test system: YAP/TAZ-TEAD transcription; test: Reporter gene assay for measuring the inhibition of YAP/TAZ-TEAD transcription (TEAD-responsive element luciferase reporter in Hek293T cells); conditions: 24 hours incubation
How it was run: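 HEK293T cells transiently transfected with a TEAD-responsive luciferase reporter were exposed to compounds for 24 h at 37° C/5% CO2, then luminescence was read. Percent inhibition normalised to vehicle (0%) and positive-control inhibitor (100%); IC50 derived.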

[2] = test system: NCI-H2052 mesothelioma cell line; test: Mesothelioma cell line proliferation assay, NCI-H2052 (ATPlite); conditions: NCI-H2052 cells, 6 days with compound, cell viability by ATPlite
Experimental: (§1) Example 57: Activity of Compounds of the Disclosure in Mesothelioma Cell Line Proliferation Assays
(§2) Mesothelioma cell lines, NCI-H226 and NCI-H2052 (both sourced from the ATCC cell culture collection) were plated in 96-well plates (Corning® 96 Well White Polystyrene Microplate clear flat bottom, white polystyrene (TC-Treated)), at 1500 cells/well in full medium (RPMI 1640 ATCC modification with L-glutamine, HEPES, Phenol Red, Sodium Pyruvate, High glucose, Low sodium bicarbonate and 10% fetal bovine serum). Cells were incubated overnight at 37° C. in an incubator with 5% CO2. Then compounds, dissolved in DMSO, were added in dose-response. Cells were incubated with compound dilutions for another 6 days at 37° C. in an incubator with 5% CO2. Cell viability was quantitated using the ATPlite kit (Perkin-Elmer) and the luminescence was read-out using an Envision instrument (Perkin-Elmer). The amount of relative light units produced using the ATPlite kit was used to calculate percent of inhibition.
(§3) The activities of some example compounds are depicted in Table 4. The activity ranges A, B and C refer to EC50 values in the mesothelioma cell line proliferation assay as described as follows: “A”: EC50<1 μM; “B”: 1 μM≤EC50≤10 μM and “C”: EC50>10 μM; NT: not tested.

[3] = test system: NCI-H226 mesothelioma cell line; test: Mesothelioma cell line proliferation assay, NCI-H226 (ATPlite); conditions: NCI-H226 cells, 6 days with compound, cell viability by ATPlite
Experimental: as §1, §2, §3

Compound	pIC50 [1]	pEC50 ([2]; Homo sapiens, 144 h)	pEC50 ([3]; Homo sapiens, 144 h)	pEC50 [2]	pEC50 [3]	pIC50 ([1]; Homo sapiens, HEK-293T, 24 h)
Cc1ccc2c(n1)N1CCC(C(=O)O)CC1CN2c1ccc(C(F)(F)F)cc1 [101-D4, (6aS,8S)— or (6aR,8S)— or (6aR,8R)— or (6aS,8R)-2-methyl-5-(4-(trifluoromethyl)phenyl)-6,6a,7,8,9,10-hexahydro-5H-dipyrido[1,2-a:3′,2′-e]pyrazine-8-carboxylic acid]	> 6.00			> 6.00	> 6.00	
C=CC(=O)NCC1CN(c2ccc(C(F)(F)F)cc2)c2cccnc2N1C (single isomer, unassigned) [27-En2]	> 6.00			> 6.00	> 6.00	
CNS(=O)(=O)N[C@@H]1C[C@@H]2CN(c3ccc(C(F)(F)F)cc3)c3cccnc3N2C1 [compound 86, N-((6aR,8R)-5-(4-(trifluoromethyl)phenyl)-5,6,6a,7,8,9-hexahydropyrido[3,2-e]pyrrolo[1,2-a]pyrazin-8-yl), N′-methylsulfuric diamide]		< 5.00	5.00 to 6.00			> 6.00
FC(F)(F)c1ccc(N2CCN(Cc3cnc[nH]3)c3ccccc32)cc1 [compound 51, 1-((1H-imidazol-5-yl)methyl)-4-(4-(trifluoromethyl)phenyl)-1,2,3,4-tetrahydroquinoxaline]		> 6.00	> 6.00			> 6.00
CC(=O)NCC1CN(c2ccc(C(F)(F)F)cc2)c2ccccc2N1 (centres unmarked) [compound 34, N-((4-(4-(trifluoromethyl)phenyl)-1,2,3,4-tetrahydroquinoxalin-2-yl)methyl)acetamide]	> 6.00	> 6.00	> 6.00			
CC(=O)N1CCN2c3ncccc3N(c3ccc(C(F)(F)F)cc3)CC2C1 (single isomer, unassigned) [29-En1, (R)- or (S)-1-(5-(4-(trifluoromethyl)phenyl)-5,6,6a,7,9,10-hexahydro-8H-pyrazino[1,2-a]pyrido[3,2-e]pyrazin-8-yl)ethan-1-one]		> 6.00	> 6.00			> 6.00
C=CC(=O)NCC1CN(c2ccc(C(F)(F)F)cc2)c2cccnc2O1 (centres unmarked) [48-En2, N-((1-(4-(trifluoromethyl)phenyl)-2,3-dihydro-1H-pyrido[2,3-b][1,4]oxazin-3-yl)methyl)acrylamide]				> 6.00	> 6.00	
CNS(=O)(=O)N1CCN2c3ncccc3N(c3ccc(C(F)(F)F)cc3)CC2C1 (single isomer, unassigned) [45-En2, (R)- or (S)-N-methyl-5-(4-(trifluoromethyl)phenyl)-5,6,6a,7,9,10-hexahydro-8H-pyrazino[1,2-a]pyrido[3,2-e]pyrazine-8-sulfonamide]	> 6.00	> 6.00	> 6.00			
CC(=O)N1CCN2c3ncccc3N(c3ccc(C(F)(F)F)cn3)CC2C1 (centres unmarked) [53-En1, 1-(5-(5-(trifluoromethyl)pyridin-2-yl)-5,6,6a,7,9,10-hexahydro-8H-pyrazino[1,2-a]pyrido[3,2-e]pyrazin-8-yl)ethan-1-one]	> 6.00	> 6.00	> 6.00			
CC(=O)N1CCN2c3ccccc3N(c3ccc(C(F)(F)F)cc3)CC2C1 (single isomer, unassigned) [15-En2, (R)- or (S)-1-(6-(4-(trifluoromethyl)phenyl)-1,2,4,4a,5,6-hexahydro-3H-pyrazino[1,2-a]quinoxalin-3-yl)ethan-1-one]	> 6.00			> 6.00	> 6.00	
C=CC(=O)NC[C@@H]1CN(c2ccc(C(F)(F)F)cc2)c2cccnc2N1 [38-En2, (R)-N-((1-(4-(trifluoromethyl)phenyl)-1,2,3,4-tetrahydropyrido[2,3-b]pyrazin-3-yl)methyl)acrylamide]		> 6.00	> 6.00			> 6.00
O=C(O)C1CCN2c3ncccc3N(c3ccc(C(F)(F)F)cc3)CC2C1 [96B-En1, (6aS,8S)- or (6aR,8S)- or (6aR,8R)- or (6aS,8R)-5-(4-(trifluoromethyl)phenyl)-6,6a,7,8,9,10-hexahydro-5H-dipyrido[1,2-a:3′,2′-e]pyrazine-8-carboxylic acid]		> 6.00	> 6.00			

Second part, the compound after the results:

pIC50 [1]	pEC50 ([2]; Homo sapiens, 144 h)	pEC50 ([3]; Homo sapiens, 144 h)	pEC50 [2]	pEC50 [3]	pIC50 ([1]; Homo sapiens, HEK-293T, 24 h)	Compound
> 6.00	> 6.00	> 6.00				CC(C)C(=O)N1CCN2c3ncccc3N(c3ccc(C(F)(F)F)cc3)CC2C1 (single isomer, unassigned) [47-En1, (R)- or (S)-2-methyl-1-(5-(4-(trifluoromethyl)phenyl)-5,6,6a,7,9,10-hexahydro-8H-pyrazino[1,2-a]pyrido[3,2-e]pyrazin-8-yl)propan-1-one]
	> 6.00	> 6.00			> 6.00	CNS(=O)(=O)N1CCN2c3ccccc3N(c3ccc(C(F)(F)F)cc3)CC2C1 (centres unmarked) [compound 32, N-methyl-6-(4-(trifluoromethyl)phenyl)-1,2,4,4a,5,6-hexahydro-3H-pyrazino[1,2-a]quinoxaline-3-sulfonamide]
> 6.00	> 6.00	> 6.00				Cc1ccc2c(n1)N1CCC(C(=O)O)CC1CN2c1ccc(C(F)(F)F)cc1 [101-D2, (6aS,8S)— or (6aR,8S)— or (6aR,8R)— or (6aS,8R)-2-methyl-5-(4-(trifluoromethyl)phenyl)-6,6a,7,8,9,10-hexahydro-5H-dipyrido[1,2-a:3′,2′-e]pyrazine-8-carboxylic acid]
> 6.00	> 6.00	> 6.00				CC(=O)NCC1CN(c2ccc(C(F)(F)F)cc2)c2ccc(C)nc2O1 (single isomer, unassigned) [77-En1, (R)- or (S)-N-((6-methyl-1-(4-(trifluoromethyl)phenyl)-2,3-dihydro-1H-pyrido[2,3-b][1,4]oxazin-3-yl)methyl)acetamide]
	> 6.00	> 6.00			> 6.00	CC(=O)N[C@@H]1C[C@@H]2CN(c3ccc(C(F)(F)F)cc3)c3ccc(C)nc3N2C1 [compound 107, N-((6aR,8R)-2-methyl-5-(4-(trifluoromethyl)phenyl)-5,6,6a,7,8,9-hexahydropyrido[3,2-e]pyrrolo[1,2-a]pyrazin-8-yl) acetamide]
	> 6.00	> 6.00			> 6.00	C=CC(=O)NCC1CN(c2ccc(C(F)(F)F)cc2)c2cccnc2N1C (single isomer, unassigned) [27-En1]
> 6.00	> 6.00	> 6.00				NC(=O)C1CCN2c3ccccc3N(c3ccc(C(F)(F)F)cc3)CC2C1 (stereo not drawn) [117B-En2, (cis)- or (trans)-5-(4-(trifluoromethyl)phenyl)-6,6a,7,8,9,10-hexahydro-5H-pyrido[1,2-a]quinoxaline-8-carboxamide]
	> 6.00	> 6.00			> 6.00	O=C(O)C1(F)CCN2c3ccccc3N(c3ccc(C(F)(F)F)cc3)CC2C1 [123-D1, (6aS,8S)- or (6aR,8S)- or (6aR,8R)- or (6aS,8R)-8-fluoro-5-(4-(trifluoromethyl)phenyl)-6,6a,7,8,9,10-hexahydro-5H-pyrido[1,2-a]quinoxaline-8-carboxylic acid]
> 6.00	> 6.00	> 6.00				CC(=O)N1CCN2c3nccnc3N(c3ccc(C(F)(F)F)cc3)CC2C1 (single isomer, unassigned) [40-En1, (R)- or (S)-1-(5-(4-(trifluoromethyl)phenyl)-5,6,6a,7,9,10-hexahydro-8H-dipyrazino[1,2-a:2′,3′-e]pyrazin-8-yl)ethan-1-one]
	> 6.00	> 6.00				O=C(O)C1CCN2c3ccccc3N(c3ccc(C(F)(F)F)cc3)CC2C1 (stereo not drawn) [65B, (cis)- or (trans)-5-(4-(trifluoromethyl)phenyl)-6,6a,7,8,9,10-hexahydro-5H-pyrido[1,2-a]quinoxaline-8-carboxylic acid]
	> 6.00	> 6.00				C=CC(=O)N1CCN2c3nccnc3N(c3ccc(C(F)(F)F)cc3)CC2C1 (centres unmarked) [41-En1, 1-(5-(4-(trifluoromethyl)phenyl)-5,6,6a,7,9,10-hexahydro-8H-dipyrazino[1,2-a:2′,3′-e]pyrazin-8-yl)prop-2-en-1-one]
	> 6.00	> 6.00			> 6.00	C=CC(=O)NC[C@H]1CN(c2ccc(C(F)(F)F)cc2)c2cccnc2N1 [38-En1, (S)—N-((1-(4-(trifluoromethyl)phenyl)-1,2,3,4-tetrahydropyrido[2,3-b]pyrazin-3-yl)methyl)acrylamide]
	> 6.00	> 6.00			> 6.00	FC(F)(F)c1ccc(N2CCN(Cc3cn[nH]c3)c3ccccc32)cc1 [compound 63, 1-((1H-pyrazol-4-yl)methyl)-4-(4-(trifluoromethyl)phenyl)-1,2,3,4-tetrahydroquinoxaline]
	> 6.00	> 6.00			> 6.00	CC(=O)N1CCN2c3ccccc3N(c3ccc(C(F)(F)F)cc3)CC2C1 (centres unmarked) [compound 15, 1-(6-(4-(trifluoromethyl)phenyl)-1,2,4,4a,5,6-hexahydro-3H-pyrazino[1,2-a]quinoxalin-3-yl)ethan-1-one]
